Results on one compound are retold here after patent publication US20050175550A1, “Compositions for oral use” (priority 2000, published 2005).

Holding throughout (experiment): MIC by agar plate dilution method on standard strains (Example 3)
Common to all, as to format: cell-based

Experiment [1] deals with Staphylococcus epidermidis ATCC12228. The method, then:
(§1) Minimum growth-inhibiting concentrations of trifluoromethionine and other antibacterial drugs on standard strains were determined by an agar plate dilution method according to the standard method of Japanese Society of Chemotherapy.
(§2) Drug solutions at a concentration 10 times as high as the maximum applicable concentration were prepared as original solutions of test drugs given in Table 2 (as to solvents used for this purpose, reference should be made also to Table 2). Serial two-fold dilution series of the original solutions were prepared at desired stages, and 1 ml each of the diluted drug solutions was added to 9 ml of media given in Table 3 to prepare drug plates. Concentration range of the individual drugs used are as follows: trifluoromethionine: 400-0.025 μg/ml (15 stages), tetracycline: 100-0.025 μg/ml (13 stages), and clarithromycin: 100-0.025 μg/ml (13 stages).
(§3) • 1) Bacterial solutions stocked at −80° C. were inoculated on agar media (as to media used, reference should be made to Table 3), and then incubated at 37° C. overnight. When desired, subculturing was conducted once more on the same agar media (by overnight incubation at 37° C.). • 2) Colonies growing on the agar media were sampled by a platinum loop, suspended in liquid media (reference should be made to Table 3) and statically incubated at 37° C. for 18 hours (preculturing). • 3) Preculturing was continued up to McFarland 0.5 (McFarland 0.5=about 10^8 CFU/ml), and then the culture broths were diluted with Muellar Hinton Broth to make 10^6 CFU/ml. 5 μl each of the diluted solutions were inoculated on the above-mentioned drug plates by an inoculator Microplanter.
(§4) Thus, bacterial solutions at about 10^8 CFU/ml can be easily prepared by use of McFarland 0.5. Bacterial solutions at such a turbidity are commercially available, but can be easily prepared. McFarland 0.5 can be obtained by adding 0.5 ml of an aqueous 0.048 mol/l barium chloride solution to 99.5 ml of 1% v/v (0.18 mol/l) sulfuric acid. • 4) The individual bacteria were incubated at 37° C. for 18-20 hours and then the growth was determined in the same manner as in Example 2 to obtain minimum growth-inhibiting concentrations.

Experiment [2] deals with Staphylococcus epidermidis ATCC29886. As to the method:
as §1, §2, §3, §4

Experiment [3] has as its system Bacillus subtilis ATCC6633. The method, then: as §3, with “Drug solutions at a concentration 10 times as high as the maximum applicable concentration were prepared as original solutions of test drugs given in Table 2 (as to solvents used for this purpose, reference should be made also to Table 2). Serial two-fold dilution series of the original solutions were prepared at desired stages, and 1 ml each of the diluted drug solutions was added to 9 ml of media given in Table 3 to prepare drug plates. […] • 1)” for “• 1)”, “inoculator Microplanter. […] Thus, bacterial solutions at about 10^8 CFU/ml can be easily prepared by use of McFarland 0.5. Bacterial solutions at such a turbidity are commercially available, but can be easily prepared.” for “inoculator Microplanter.”

In experiment [4] the test system is Enterococcus faecalis ATCC29247. As to the method:
as §3, with “Drug solutions at a concentration 10 times as high as the maximum applicable concentration were prepared as original solutions of test drugs given in Table 2 (as to solvents used for this purpose, reference should be made also to Table 2). Serial two-fold dilution series of the original solutions were prepared at desired stages, and 1 ml each of the diluted drug solutions was added to 9 ml of media given in Table 3 to prepare drug plates. […] • 1)” for “• 1)”, “inoculator Microplanter. […] Thus, bacterial solutions at about 10^8 CFU/ml can be easily prepared by use of McFarland 0.5. Bacterial solutions at such a turbidity are commercially available, but can be easily prepared.” for “inoculator Microplanter.”

Experiment [5] concerns Enterococcus faecium ATCC19434. As to the method:
as §3, with “Drug solutions at a concentration 10 times as high as the maximum applicable concentration were prepared as original solutions of test drugs given in Table 2 (as to solvents used for this purpose, reference should be made also to Table 2). Serial two-fold dilution series of the original solutions were prepared at desired stages, and 1 ml each of the diluted drug solutions was added to 9 ml of media given in Table 3 to prepare drug plates. […] • 1)” for “• 1)”, “inoculator Microplanter. […] Thus, bacterial solutions at about 10^8 CFU/ml can be easily prepared by use of McFarland 0.5. Bacterial solutions at such a turbidity are commercially available, but can be easily prepared.” for “inoculator Microplanter.”

The subject of experiment [6] is Escherichia coli ATCC25922. As to the method: as §3, with “Drug solutions at a concentration 10 times as high as the maximum applicable concentration were prepared as original solutions of test drugs given in Table 2 (as to solvents used for this purpose, reference should be made also to Table 2). Serial two-fold dilution series of the original solutions were prepared at desired stages, and 1 ml each of the diluted drug solutions was added to 9 ml of media given in Table 3 to prepare drug plates. […] • 1)” for “• 1)”, “inoculator Microplanter. […] Thus, bacterial solutions at about 10^8 CFU/ml can be easily prepared by use of McFarland 0.5. Bacterial solutions at such a turbidity are commercially available, but can be easily prepared.” for “inoculator Microplanter.”

In experiment [7] the test system is Escherichia coli ATCC35218. As to the method:
as §3, with “Drug solutions at a concentration 10 times as high as the maximum applicable concentration were prepared as original solutions of test drugs given in Table 2 (as to solvents used for this purpose, reference should be made also to Table 2). Serial two-fold dilution series of the original solutions were prepared at desired stages, and 1 ml each of the diluted drug solutions was added to 9 ml of media given in Table 3 to prepare drug plates. […] • 1)” for “• 1)”, “inoculator Microplanter. […] Thus, bacterial solutions at about 10^8 CFU/ml can be easily prepared by use of McFarland 0.5. Bacterial solutions at such a turbidity are commercially available, but can be easily prepared.” for “inoculator Microplanter.”

For experiment [8], the system named is Haemophilus influenzae ATCC33391. The method, then:
as §3, with “Drug solutions at a concentration 10 times as high as the maximum applicable concentration were prepared as original solutions of test drugs given in Table 2 (as to solvents used for this purpose, reference should be made also to Table 2). Serial two-fold dilution series of the original solutions were prepared at desired stages, and 1 ml each of the diluted drug solutions was added to 9 ml of media given in Table 3 to prepare drug plates. […] • 1)” for “• 1)”, “inoculator Microplanter. […] Thus, bacterial solutions at about 10^8 CFU/ml can be easily prepared by use of McFarland 0.5. Bacterial solutions at such a turbidity are commercially available, but can be easily prepared.” for “inoculator Microplanter.”

For experiment [9], the system named is Haemophilus influenzae ATCC33533. The method, then: as §3, with “Drug solutions at a concentration 10 times as high as the maximum applicable concentration were prepared as original solutions of test drugs given in Table 2 (as to solvents used for this purpose, reference should be made also to Table 2). Serial two-fold dilution series of the original solutions were prepared at desired stages, and 1 ml each of the diluted drug solutions was added to 9 ml of media given in Table 3 to prepare drug plates. […] • 1)” for “• 1)”, “inoculator Microplanter. […] Thus, bacterial solutions at about 10^8 CFU/ml can be easily prepared by use of McFarland 0.5. Bacterial solutions at such a turbidity are commercially available, but can be easily prepared.” for “inoculator Microplanter.”

Experiment [10] has as its system Haemophilus influenzae ATCC49247. The method, then:
as §3, with “Drug solutions at a concentration 10 times as high as the maximum applicable concentration were prepared as original solutions of test drugs given in Table 2 (as to solvents used for this purpose, reference should be made also to Table 2). Serial two-fold dilution series of the original solutions were prepared at desired stages, and 1 ml each of the diluted drug solutions was added to 9 ml of media given in Table 3 to prepare drug plates. […] • 1)” for “• 1)”, “inoculator Microplanter. […] Thus, bacterial solutions at about 10^8 CFU/ml can be easily prepared by use of McFarland 0.5. Bacterial solutions at such a turbidity are commercially available, but can be easily prepared.” for “inoculator Microplanter.”

Experiment [11] has as its system Haemophilus influenzae ATCC49766. As to the method:
as §3, with “Drug solutions at a concentration 10 times as high as the maximum applicable concentration were prepared as original solutions of test drugs given in Table 2 (as to solvents used for this purpose, reference should be made also to Table 2). Serial two-fold dilution series of the original solutions were prepared at desired stages, and 1 ml each of the diluted drug solutions was added to 9 ml of media given in Table 3 to prepare drug plates. […] • 1)” for “• 1)”, “inoculator Microplanter. […] Thus, bacterial solutions at about 10^8 CFU/ml can be easily prepared by use of McFarland 0.5. Bacterial solutions at such a turbidity are commercially available, but can be easily prepared.” for “inoculator Microplanter.”

Experiment [12] deals with Klebsiella pneumoniae ATCC700603. As to the method: as §3, with “Drug solutions at a concentration 10 times as high as the maximum applicable concentration were prepared as original solutions of test drugs given in Table 2 (as to solvents used for this purpose, reference should be made also to Table 2). Serial two-fold dilution series of the original solutions were prepared at desired stages, and 1 ml each of the diluted drug solutions was added to 9 ml of media given in Table 3 to prepare drug plates. […] • 1)” for “• 1)”, “inoculator Microplanter. […] Thus, bacterial solutions at about 10^8 CFU/ml can be easily prepared by use of McFarland 0.5. Bacterial solutions at such a turbidity are commercially available, but can be easily prepared.” for “inoculator Microplanter.”

In brackets after ≈: the same amount, converted by molar mass. Where only a bound is given, the exact number is not on record here.

As to `N[C@@H](CCSC(F)(F)F)C(=O)O` [TFM, Trifluoromethionine], the MIC in [1], in experiment [2], in [3], in [4], in [5] and in experiment [6] was more than 400 µg/mL in each case. For the same compound, the MIC in [7] is more than 400 µg/mL; in [8] it was 50 µg/mL (≈ 246 µM); in [9], 100 µg/mL (≈ 492 µM); in experiment [10] it was 50 µg/mL (≈ 246 µM); in experiment [11], 25 µg/mL (≈ 123 µM); in experiment [12], more than 400 µg/mL.
